These results are taken from PMC9332707, “Bio-Guided Isolation of SARS-CoV-2 Main Protease Inhibitors from Medicinal Plants: In Vitro Assay and Molecular Dynamics” (Plants, 2022).

≈ marks a conversion by molar mass, not a printed value. Read-outs that look alike come from different tables or passages of the source.

As usually defined, the IC50 is the concentration that gives 50% inhibition.

For data set [1], the target named is SARS-CoV-2 M^PRO (Severe acute respiratory syndrome coronavirus 2, UniProt P0DTD1). Kind of data set: biochemical. It is filed as biochemical.
Data set [2] concerns SARS-CoV-2 (hCoV-19/Egypt/NRC-03/2020). Description: microbe, parasite or virus in culture. It is filed as cell-based. Particulars: for selectivity index CC50/IC50: CC50 (VERO-E6) / antiviral IC50.
The test system of data set [3] is SARS-CoV-2 infection. Further details: method as in PMID 33203926. Particulars: read-out: IC50 against SARS-CoV-2 infection; cited from earlier work.
Details of data set [4]: method as in PMID 33203926. Particulars: cited from earlier work.
The conditions of data set [5]: cited from earlier work.
Data set [6] in a line: MTT cytotoxicity assay. Particulars: African green monkey. Background: Tetrazolium assays rely on reduction of a dye to a coloured formazan, in cell work by metabolically active cells.
Data set [7] is described as follows: in vitro. Particulars: African green monkey.
The subject of data set [8] is M^PRO. Particulars: read-out: reported bioassay IC50 (M^PRO); reported for the co-crystallized inhibitors (PDB 7CBT, 6W63); ref not given; cited from earlier work.
Details of data set [9]: method as in earlier work. Particulars: dose of 5 mg/day to 2600 mg/day, without any toxic symptoms; cited from earlier work.
On the set-up of data set [10]: method as in PMID 24924310. Particulars: cited from earlier work.
The mark [11] stands for this setting: Severe acute respiratory syndrome coronavirus 2, Vero C1008, read-out: IC50 antiviral activity against SARS-CoV-2.
Where [12] appears, read: relative to GC376 standard inhibitor, read-out: IC50 on SARS-CoV-2 viral main protease.
[13] abbreviates: Severe acute respiratory syndrome coronavirus 2, Vero C1008, hCoV-19/Egypt/NRC-03/2020 on Vero-E6 cells, read-out: IC50 antiviral activity against SARS-CoV-2.

For `CCCCC[C@H](O)CC(=O)CCc1ccc(O)c(OC)c1` [6-Gingerol], the “% Inhibition of SARS-CoV-2 M^PRO by isolated compounds” value (“% Inhibition of SARS-CoV-2 M^PRO” below) in [1] was 65.2%. The values for the IC50 in data set [1], in data set [2] (setting [11]) and in [3] were 9.33 µM, 43.5 µg/mL (≈ 148 µM) and greater than 100 µM, respectively. Also, the “selectivity index CC50/IC50” value in data set [2] is given as 2.3. Moreover, the values for the CC50 in data set [4] and in data set [6] were greater than 100 µM and 101 µg/mL (≈ 344 µM), respectively. Also, the “absorption after oral administration” value in data set [5] (detected in blood as glucuronide and sulfate conjugates) was “well-absorbed”. Further, the “toxicity / tolerability in humans” value in [5] (doses up to 2.0 g daily, only mild gastrointestinal complaints) is “low levels of toxicity and high levels of tolerability”.

With `CCCCCCCC(=O)CCc1ccc(O)c(OC)c1` [6-Paradol], in data set [1] (FRET assay, isolated compounds), the “% Inhibition of SARS-CoV-2 M^PRO” value is 71.8%. The figures for the IC50 in data set [1] (setting [12]) and in data set [2] (setting [13]) were 0.168 µM and 281 µg/mL (≈ 1010 µM), respectively. Further, the “selectivity index CC50/IC50” value in data set [2] was 0.6. Further, the CC50 in data set [7] amounted to 155 µg/mL (≈ 557 µM).

Take `CC(C)C[C@H](NC(=O)OCc1ccccc1)C(=O)N[C@@H](CC1CCNC1=O)C(O)S(=O)(=O)O` (stereo partly drawn) [GC376]: the IC50 in [8] was 0.026 µM.

Turning to `COc1cc(-c2cc(=O)c3c(O)c(OC)c(OC)c(OC)c3o2)cc(OC)c1OC` [Gardenin A], the “% Inhibition of SARS-CoV-2 M^PRO” value in [1] stood at 73.80%. The IC50 in data set [1] (setting [12]) was 5.96 µM; in data set [2] (setting [13]), 83.8 µg/mL (≈ 200 µM). For the same compound, the “selectivity index CC50/IC50” value in data set [2] is on record as 2.9. The compound also yielded a CC50 in data set [7] of 246 µg/mL (≈ 589 µM).

In the case of `COc1ccc(-c2cc(=O)c3c(O)c(OC)c(OC)c(OC)c3o2)cc1` [Gardenin B], the “% Inhibition of SARS-CoV-2 M^PRO” value in data set [1] worked out at 1.00%.

As to `CC1=CC(=O)C(C(C)C)=CC1=O` [Thymoquinone], the “% Inhibition of SARS-CoV-2 M^PRO” value in [1] (FRET assay, isolated compounds) was found to be 63.21%. For the same compound, the IC50 in [1] (setting [12]) was found to be 10.3 µM; in data set [2] (setting [11]), 6.14 µg/mL (≈ 37.4 µM). The “selectivity index CC50/IC50” value in data set [2] worked out at 1.33. For the same compound, the clinical safety result in [9] is reported as “safe”. Further, in data set [10] (after oral and IV administration), the elimination entry was “rapid-elimination properties”. Moreover, in data set [10] (oral), the “absorption following oral administration” value is recorded as “relatively slower absorption”. The compound also yielded a CC50 in [6] (VERO-E6 cells) of 8.2 µg/mL (≈ 49.9 µM).

On to `CC(C)(C)c1ccc(N(C(=O)c2cnc[nH]2)[C@@H](C(=O)NC2CCCCC2)c2cccnc2)cc1` [X77], for which the IC50 in [8] was 2.3 µM.
